Measured values from ChEMBL document CHEMBL1949614, “Advent of Imidazo[1,2-a]pyridine-3-carboxamides with Potent Multi- and Extended Drug Resistant Antituberculosis Activity” (ACS Med Chem Lett, 2011).
In brackets after ≈: the same amount, converted by molar mass.

Legend:
Format in all cases: functional
[1] = test system: Mycobacterium tuberculosis; test: Antitubercular activity against multidrug-resistant isoniazid, rifampicin, ethambutol, kanamycin, p-aminosalicylic acid-resistant Mycobacterium tuberculosis clinical isolate by microbroth dilution assay
[2] = test system: Mycobacterium tuberculosis; test: Antitubercular activity against multidrug-resistant isoniazid, rifampicin, ethambutol, streptomycin, p-aminosalicylic acid-resistant Mycobacterium tuberculosis by microbroth dilution assay
[3] = test system: Mycobacterium tuberculosis; test: Antitubercular activity against multidrug-resistant isoniazid, rifampicin, ethambutol, pyrazinamide, rifabutin, thioacetazone/ethionamide-resistant Mycobacterium tuberculosis clinical isolate by microbroth dilution assay
[4] = test system: Mycobacterium tuberculosis; test: Antitubercular activity against multidrug-resistant isoniazid, rifampicin, ethambutol, rifabutin-resistant Mycobacterium tuberculosis clinical isolate by microbroth dilution assay
[5] = test system: Mycobacterium tuberculosis; test: Antitubercular activity against multidrug-resistant isoniazid, cycloserine, p-aminosalicylic acid, ethionamide/thioacetazone-resistant Mycobacterium tuberculosis clinical isolate by microbroth dilution assay
[6] = test system: Mycobacterium tuberculosis; test: Antitubercular activity against multidrug-resistant isoniazid, rifampicin, ethambutol, pyrazinamide, streptomycin, p-aminosalicylic acid-resistant Mycobacterium tuberculosis clinical isolate by microbroth dilution assay
[7] = test system: Mycobacterium tuberculosis; test: Antitubercular activity against extensively drug-resistant isoniazid, rifampicin, ethambutol, streptomycin, cycloserine, p-aminosalicylic acid, ethionamide/thioacetazone, ofloxacin-resistant Mycobacterium tuberculosis clinical isolate by microbroth dilution assay
[8] = test system: Mycobacterium tuberculosis; test: Antitubercular activity against multidrug-resistant isoniazid, rifampicin, ethambutol, pyrazinamide, streptomycin, kanamycin, p-aminosalicylic acid, ethionamide/thioacetazone-resistant Mycobacterium tuberculosis clinical isolate by microbroth dilution assay
[9] = test system: Mycobacterium tuberculosis; test: Antitubercular activity against extensively drug-resistant isoniazid, rifampicin, ethambutol, kanamycin, p-aminosalicylic acid, ethionamide/thioacetazone, ofloxacin-resistant Mycobacterium tuberculosis clinical isolate by microbroth dilution assay
[10] = test system: Mycobacterium tuberculosis; test: Antitubercular activity against extensively drug-resistant isoniazid, rifampicin, ethambutol, streptomycin, p-aminosalicylic acid, ofloxacin-resistant Mycobacterium tuberculosis clinical isolate by microbroth dilution assay

Structure (SMILES)	MIC90 [1]	MIC90 [2]	MIC90 [3]	MIC90 [4]	MIC90 [5]	MIC90 [6]	MIC90 [7]	MIC90 [8]	MIC90 [9]	MIC90 [10]
Cc1ccn2c(C(=O)NCc3ccccc3)c(C)nc2c1	0.28 µM (≈ 0.0782 µg/mL)	2.24 µM (≈ 0.626 µg/mL)	0.14 µM (≈ 0.0391 µg/mL)	0.14 µM (≈ 0.0391 µg/mL)	1.12 µM (≈ 0.313 µg/mL)	1.12 µM (≈ 0.313 µg/mL)	0.07 µM (≈ 0.0196 µg/mL)	0.07 µM (≈ 0.0196 µg/mL)	0.07 µM (≈ 0.0196 µg/mL)	0.14 µM (≈ 0.0391 µg/mL)
Cc1ccn2c(C(=O)NCc3cccc(F)c3)c(C)nc2c1	0.26 µM (≈ 0.0773 µg/mL)	0.26 µM (≈ 0.0773 µg/mL)	0.06 µM (≈ 0.0178 µg/mL)	0.13 µM (≈ 0.0387 µg/mL)	0.26 µM (≈ 0.0773 µg/mL)	0.06 µM (≈ 0.0178 µg/mL)	0.07 µM (≈ 0.0208 µg/mL)	0.06 µM (≈ 0.0178 µg/mL)	0.03 µM (≈ 0.00892 µg/mL)	0.03 µM (≈ 0.00892 µg/mL)
COc1cccc(CNC(=O)c2c(C)nc3cc(C)ccn23)c1	0.13 µM (≈ 0.0402 µg/mL)	1.01 µM (≈ 0.312 µg/mL)	0.06 µM (≈ 0.0186 µg/mL)	≤ 0.03 µM	0.13 µM (≈ 0.0402 µg/mL)	0.06 µM (≈ 0.0186 µg/mL)	0.03 µM (≈ 0.00928 µg/mL)	≤ 0.03 µM	0.02 µM (≈ 0.00619 µg/mL)	0.02 µM (≈ 0.00619 µg/mL)
